# Test results reported in patent US8642597B2, “Pyrazole compounds for controlling invertebrate pests” (BASF SE, priority 2007, dated 2014).
# Key:
# Assay type in all cases: in vivo
# [1] = test system: Silverleaf Whitefly (bemisia argentifolii, adult); test: Silverleaf whitefly (bemisia argentifolii, adult), cotton cotyledon dip test; conditions: 72 h, 3 days after treatment, in comparison with untreated controls
# Description: (§1) The active compounds were formulated in 50:50 (vol:vol) acetone:water and 100 ppm Kinetica™ surfactant.
# Selected cotton plants were grown to the cotyledon state (one plant per pot). The cotyledons were dipped into the test solution to provide complete coverage of the foliage and placed in a well-vented area to dry. Each pot with treated seedling was placed in a plastic cup and 10 to 12 whitefly adults (approximately 3-5 day old) were introduced. The insects were collected using an aspirator and an 0.6 cm, non-toxic Tygon® tubing (R-3603) connected to a barrier pipette tip. The tip, containing the collected insects, was then gently inserted into the soil containing the treated plant, allowing insects to crawl out of the tip to reach the foliage for feeding. The cups were covered with a reusable screened lid (150 micron mesh polyester screen PeCap from Tetko Inc). Test plants were maintained in the holding room at about 25° C. and 20-40% relative humidity for 3 days avoiding direct exposure to the fluorescent light (24 hour photoperiod) to prevent trapping of heat inside the cup. Mortality was assessed 3 days after treatment of the plants.
# [2] = test system: Green Peach Aphid (Myzus persicae, Mixed Life Stages); test: Green peach aphid (Myzus persicae, mixed life stages), pepper leaf dip test; conditions: foliar, 120 h, after 5 days, in comparison with untreated controls
# Excerpt: as §1
# Pepper plants in the 2nd leaf-pair stage (variety ‘California Wonder’) were infested with approximately 40 laboratory-reared aphids by placing infested leaf sections on top of the test plants. The leaf sections were removed after 24 hr. The leaves of the intact plants were dipped into gradient solutions of the test compound and allowed to dry. Test plants were maintained under fluorescent light (24 hour photoperiod) at about 25° C. and 20-40% relative humidity. Aphid mortality on the treated plants, relative to mortality on check plants, was determined after 5 days.
# [3] = test system: Cotton Aphid (aphis gossypii, Mixed Life Stages); test: Cotton aphid (aphis gossypii, mixed life stages), cotyledon dip test; conditions: 120 h, mortality counts after 5 days, in comparison with untreated controls
# Excerpt: as §1
# Cotton plants at the cotyledon stage (one plant per pot) were infested by placing a heavily infested leaf from the main colony on top of each cotyledon. The aphids were allowed to transfer to the host plant overnight, and the leaf used to transfer the aphids was removed. The cotyledons were dipped in the test solution and allowed to dry. After 5 days, mortality counts were made.
# [4] = test system: Cowpea Aphid (aphis craccivora); test: Cowpea aphid (aphis craccivora), spray on potted cowpea plants; conditions: population reduction assessed after 24, 72 and 120 hours, in comparison with untreated controls
# Description: The active compounds were formulated in 50:50 (vol:vol) acetone:water. The test solution was prepared at the day of use.
# Potted cowpea plants colonized with 100-150 aphids of various stages were sprayed after the pest population had been recorded. Population reduction was assessed after 24, 72, and 120 hours.
# [5] = test system: Vetch Aphid (Megoura viciae); test: Vetch aphid (Megoura viciae), bean leaf disk microtiterplate test; conditions: foliar, 144 h, concentration of the test solution 2500 mg/L, 6 days
# Description: The active compounds were formulated in 1:3 (vol:vol) DMSO:water with different concentrations of formulated compounds.
# Bean leaf disks were placed into microtiterplates filled with 0.8% agar-agar and 2.5 ppm OPUS™. The leaf disks were sprayed with 2.5 μl of the test solution and 5 to 8 adult aphids were placed into the microtiterplates which were then closed and kept at 23±1° C. and 50±5% relative humidity under fluorescent light for 6 days. Mortality was assessed on the basis of vital, reproduced aphids. Aphid mortality and fecundity was then visually assessed.
# [6] = test system: Southern Armyworm (spodoptera eridania, 2nd instar larvae); test: Southern armyworm (spodoptera eridania, 2nd instar larvae), lima bean leaf dip test; conditions: foliar, 96 h, at 4 days, in comparison with untreated controls
# Description: as §1
# A pair of first true leaves of Sieva lima bean was dipped in the test solution and allowed to dry. The leaf was then placed in a plastic perforated zip enclosure bag and ten 2nd instar larvae were added. At 4 days, observations were made of mortality and reduced feeding.
# [7] = test system: Boll Weevil (Anthonomus grandis); test: Boll weevil (Anthonomus grandis), insect diet microtiter plate test; conditions: 120 h, concentration of the test solution 2500 mg/L, egg and larval mortality after 5 days
# Description: The compounds were formulated in 75:25 (vol:vol) water:DMSO.
# For evaluating control of boll weevil (Anthonomus grandis) the test unit consisted of 24-well-microtiter plates containing an insect diet and 20-30 A. grandis eggs. Different concentrations of formulated compounds were sprayed onto the insect diet at 20 μl, using a custom built micro atomizer, at two replications. After application, the microtiter plates were incubated at 23±1° C. and 50±5% relative humidity for 5 days. Egg and larval mortality was then visually assessed.
SMILES,mortality at 300 ppm [1],mortality at 300 ppm [2],mortality at 300 ppm [3],mortality at 300 ppm [4],mortality at 2500 µg/mL [5],mortality at 300 ppm [6],mortality at 2500 µg/mL [7]
Cc1nn(C(F)F)cc1C(=O)N(C)c1cccnc1 [Compound 229],≥ 50%,≥ 50%,≥ 75%,–,–,–,–
CCn1ncc(C(=O)N(C)c2cccnc2)c1C [Compound 180],≥ 50%,≥ 50%,≥ 75%,≥ 75%,–,–,–
CC(=O)N(C(=O)c1cn(C)nc1C(F)(F)F)c1cccnc1 [Compound 134],≥ 50%,≥ 50%,≥ 75%,≥ 75%,≥ 80%,–,–
Cn1ncc(C(=O)Nc2cccnc2)c1C1CC1 [Compound 89],≥ 50%,≥ 50%,≥ 75%,≥ 75%,≥ 80%,–,–
CN(C(=O)c1cnn(C)c1C(F)(F)F)c1cccnc1 [Compound 174],–,≥ 50%,≥ 75%,≥ 75%,–,≥ 50%,–
Cn1cc(C(=O)Nc2cccnc2)c(C(F)(F)F)n1 [Compound 196],–,≥ 50%,≥ 75%,≥ 75%,–,≥ 50%,–
Cc1nn(C(F)F)cc1C(=O)Nc1cccnc1 [Compound 209],–,≥ 50%,≥ 75%,≥ 75%,–,≥ 50%,–
CN(C(=O)c1cnn(C(F)F)c1C(F)(F)F)c1cccnc1 [Compound 191],–,–,≥ 75%,≥ 75%,≥ 80%,≥ 50%,100%
O=C(Nc1cccnc1)c1cnn(Cc2ccccc2)c1 [Compound 82],≥ 50%,≥ 50%,≥ 75%,≥ 75%,–,–,–
Cn1cc(C(=O)Nc2cccnc2)c(C(F)F)n1 [Compound 170],–,≥ 50%,≥ 75%,≥ 75%,–,≥ 50%,–
O=C(Nc1cccnc1)c1cn(-c2ccc(Cl)cc2)nc1C(F)(F)F [Compound 73],≥ 50%,≥ 50%,≥ 75%,≥ 75%,≥ 80%,–,–
CN(C(=O)c1cnn(C(F)F)c1C(F)F)c1cccnc1 [Compound 189],–,≥ 50%,≥ 75%,≥ 75%,≥ 80%,≥ 50%,100%
O=C(Nc1cccnc1)c1cnn(-c2ccc(F)cc2)c1C(F)(F)F [Compound 228],–,≥ 50%,≥ 75%,–,≥ 80%,≥ 50%,–
Cc1c(C(=O)Nc2cccnc2)cnn1C [Compound 179],–,≥ 50%,≥ 75%,≥ 75%,–,≥ 50%,–
CCS/C(=N\c1cccnc1)c1cn(C)nc1C(F)(F)F [Compound 243],–,≥ 50%,≥ 75%,≥ 75%,≥ 80%,–,100%
O=C(Nc1cccnc1)c1cnn(C(F)F)c1 [Compound 213],–,≥ 50%,≥ 75%,≥ 75%,–,≥ 50%,–
